In patent publication US20170210751A1, “PRMT5 INHIBITORS AND USES THEREOF” (Epizyme, Inc., priority 2014, published 2017):

Columns and labels:
[1] = test system: Z-138 cell line; test: Z-138 Proliferation Assay (Cell Titer Glo); assay type: cell-based; details: Homo sapiens, 120 h; Z-138 cells, 5 days incubation, ATP (Cell Titer Glo)
Summary of the method: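 Z-138 cells in RPMI with 10% FBS exposed 5 days at 37 °C to nine-point 3-fold dilutions, top 20 μM final, 0.2% DMSO, triplicate. ATP-based CellTiter-Glo luminescence; IC50 from 4-parameter fit of normalized curves.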

[2] = test system: Symmetric di-Methyl Arginine in Z-138 cells; test: Z-138 Methylation Assay (In Cell Western for symmetric di-methyl arginine); assay type: cell-based; details: Homo sapiens, 96 hours incubation, symmetric di-methyl arginine normalised to DNA content, read-out: ICW EC50
Summary of the method: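 Z-138 cells were treated with compound for 96 h at 37 °C, then fixed on poly-D-lysine plates. Symmetric di-methyl arginine was detected by In-Cell Western (800 nm) with DRAQ5 DNA normalisation (700 nm). Percent inhibition used DMSO and 3 μM reference-compound controls; IC50 curves came from triplicate wells.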

SMILES	EC50 [1] [nM]	EC50 [2] [nM]
CC(=O)N1CCC(Nc2cc(C(=O)NC[C@H](O)CN3CCc4scc(C)c4C3)ccn2)CC1 [Compound 1-14, (S)-2-((1-acetylpiperidin-4-yl)amino)-N-(2-hydroxy-3-(3-methyl-6,7-dihydrothieno[3,2-c]pyridin-5(4H)-yl)propyl)isonicotinamide]	101 to 1000	< 100
CC(=O)N1CCC(Nc2cc(C(=O)NC[C@H](O)CN3CCc4cnccc4C3)ccn2)CC1 [Compound 2-18]	101 to 1000	101 to 1000
CC(=O)N1CCC(Nc2cc(C(=O)NC[C@H](O)CN3CCc4[nH]cnc4C3)ccn2)CC1 [Compound 3-36, (S)-2-((1-acetylpiperidin-4-yl)amino)-N-(3-(6,7-dihydro-1H-imidazo[4,5-c]pyridin-5(4H)-yl)-2-hydroxypropyl)isonicotinamide]	> 5000	> 1000
CC(=O)N1CCC(Nc2cc(C(=O)NC[C@H](O)CN3CCc4ncccc4C3)ncn2)CC1 [Compound 2-14, (S)-6-((1-acetylpiperidin-4-yl)amino)-N-(3-(7,8-dihydro-1,6-naphthyridin-6(5H)-yl)-2-hydroxypropyl)pyrimidine-4-carboxamide]	1000 to 10000	101 to 1000
Nc1nc2c(s1)CCN(C[C@@H](O)CNC(=O)c1cc(NC3COC3)ncn1)C2 [Compound 1-20, (S)—N-(3-(2-amino-6,7-dihydrothiazolo[4,5-c]pyridin-5(4H)-yl)-2-hydroxypropyl)-6-(oxetan-3-ylamino)pyrimidine-4-carboxamide]	> 5000	> 1000
CC(=O)N1CC(Nc2cc(C(=O)NC[C@H](O)CN3CCc4scc(C)c4C3)ncn2)C1 [Compound 1-12, (S)-6-((1-acetylazetidin-3-yl)amino)-N-(2-hydroxy-3-(3-methyl-6,7-dihydrothieno[3,2-c]pyridin-5(4H)-yl)propyl)pyrimidine-4-carboxamide]	101 to 1000	< 100
CC(=O)N1CCC(Nc2cc(C(=O)NC[C@H](O)CN3CCc4[nH]nc(-c5ccccc5)c4C3)ncn2)CC1 [Compound 3-12, (S)-6-((1-acetylpiperidin-4-yl)amino)-N-(2-hydroxy-3-(3-phenyl-6,7-dihydro-1H-pyrazolo[4,3-c]pyridin-5(4H)-yl)propyl)pyrimidine-4-carboxamide]	> 5000	> 1000
O=C(NC[C@H](O)CN1CCc2ncccc2C1)c1cc(NC2COC2)ncn1 [Compound 2-12, (S)—N-(3-(7,8-dihydro-1,6-naphthyridin-6(5H)-yl)-2-hydroxypropyl)-6-(oxetan-3-ylamino)pyrimidine-4-carboxamide]	1000 to 10000	> 5000
O=C(COc1cccc2cccnc12)NCC(O)CN1CCc2ccncc2C1 (stereo not drawn) [Compound 2-8, N-[2-hydroxy-3-(1,2,3,4-tetrahydro-2,7-naphthyridin-2-yl)propyl]-2-(quinolin-8-yloxy)acetamide]	> 5000	> 1000
Cc1csc2c1CN(C[C@@H](O)CNC(=O)c1cc(NC3COC3)ncn1)CC2 [Compound 1-11, (S)—N-(2-hydroxy-3-(3-methyl-6,7-dihydrothieno[3,2-c]pyridin-5(4H)-yl)propyl)-6-(oxetan-3-ylamino)pyrimidine-4-carboxamide]	1000 to 10000	< 100
CC(=O)N1CCC(Nc2cc(C(=O)NC[C@H](O)CN3CCc4c(ncn4C)C3)ccn2)CC1 [Compound 3-22, (S)-2-((1-acetylpiperidin-4-yl)amino)-N-(2-hydroxy-3-(1-methyl-6,7-dihydro-1H-imidazo[4,5-c]pyridin-5(4H)-yl)propyl)isonicotinamide]	> 5000	> 1000
O=C(COc1cccc2cccnc12)NCC(O)CN1CCc2sccc2C1 (stereo not drawn) [Compound 1-4, N-(2-hydroxy-3-{4H,5H,6H,7H-thieno[3,2-c]pyridin-5-yl}propyl)-2-(quinolin-8-yloxy)acetamide]	1000 to 10000	< 100
Cn1cnc2c1CCN(C[C@@H](O)CNC(=O)c1cc(NC3COC3)ncn1)C2 [Compound 3-28]	> 5000	> 1000
CC(=O)N1CC(Nc2cc(C(=O)NC[C@H](O)CN3CCc4sc(C)nc4C3)ncn2)C1 [Compound 1-27]	> 5000	> 1000
O=C(COc1cccc2cccnc12)NCC(O)CN1CCc2cccnc2C1 (stereo not drawn) [Compound 2-5, N-[2-hydroxy-3-(5,6,7,8-tetrahydro-1,7-naphthyridin-7-yl)propyl]-2-(quinolin-8-yloxy)acetamide]	> 5000	> 1000
CC(=O)N1CCC(Nc2cc(C(=O)NC[C@H](O)CN3CCc4ccncc4C3)ccn2)CC1 [Compound 2-19, (S)-2-((1-acetylpiperidin-4-yl)amino)-N-(3-(3,4-dihydro-2,7-naphthyridin-2(1H)-yl)-2-hydroxypropyl)isonicotinamide]	> 5000	> 1000
CC(=O)N1CCC(Nc2cc(C(=O)NC[C@H](O)CN3CCc4cccnc4C3)ccn2)CC1 [Compound 2-21, (S)-2-((1-acetylpiperidin-4-yl)amino)-N-(3-(5,6-dihydro-1,7-naphthyridin-7(8H)-yl)-2-hydroxypropyl)isonicotinamide]	> 5000	101 to 1000

SMILES	EC50 [1] [nM]	EC50 [2] [nM]
CC(=O)N1CCC(Nc2cc(C(=O)NC[C@H](O)CN3CCc4scnc4C3)ncn2)CC1 [Compound 1-32]	> 5000	> 1000
CC(=O)N1CCC(Nc2cc(C(=O)NC[C@H](O)CN3CCc4c(cnn4C)C3)ncn2)CC1 [Compound 3-56]	> 5000	> 1000
O=C(NC[C@H](O)CN1CCc2ccncc2C1)c1cc(NC2COC2)ncn1 [Compound 2-24]	> 5000	> 1000
CC(=O)N1CC(Nc2cc(C(=O)NC[C@H](O)CN3CCc4[nH]c(C)nc4C3)ncn2)C1 [Compound 3-47]	> 5000	> 1000
O=C(NC[C@H](O)CN1CCc2[nH]nc(-c3ccccc3)c2C1)c1cc(NC2COC2)ncn1 [Compound 3-17, (S)—N-(2-hydroxy-3-(3-phenyl-6,7-dihydro-1H-pyrazolo[4,3-c]pyridin-5(4H)-yl)propyl)-6-(oxetan-3-ylamino)pyrimidine-4-carboxamide]	> 5000	> 1000
CC(=O)N1CCC(Nc2cc(C(=O)NC[C@H](O)CN3CCc4cccnc4C3)ncn2)CC1 [Compound 2-11, (S)-6-((1-acetylpiperidin-4-yl)amino)-N-(3-(5,6-dihydro-1,7-naphthyridin-7(8H)-yl)-2-hydroxypropyl)pyrimidine-4-carboxamide]	> 5000	101 to 1000
CC(=O)N1CC(Nc2cc(C(=O)NC[C@H](O)CN3CCc4[nH]ncc4C3)ncn2)C1 [Compound 3-23]	> 5000	> 1000
CC(=O)N1CCC(Nc2cc(C(=O)NC[C@H](O)CN3CCc4[nH]cnc4C3)ncn2)CC1 [Compound 3-34, (S)-6-((1-acetylpiperidin-4-yl)amino)-N-(3-(6,7-dihydro-1H-imidazo[4,5-c]pyridin-5(4H)-yl)-2-hydroxypropyl)pyrimidine-4-carboxamide]	> 5000	> 1000
CC(=O)N1CCC(Nc2cc(C(=O)NC[C@H](O)CN3CCc4cn[nH]c4C3)ccn2)CC1 [Compound 3-50]	> 5000	> 1000
Cc1nc2c(o1)CCN(C[C@@H](O)CNC(=O)c1cc(NC3COC3)ncn1)C2 [Compound 4-1, (S)—N-(2-hydroxy-3-(2-methyl-6,7-dihydrooxazolo[4,5-c]pyridin-5(4H)-yl)propyl)-6-(oxetan-3-ylamino)pyrimidine-4-carboxamide]	> 5000	> 1000
CC(=O)N1CCC(Nc2cc(C(=O)NC[C@H](O)CN3CCc4sccc4C3)ncn2)CC1 [Compound 1-3, (S)-6-((1-acetylpiperidin-4-yl)amino)-N-(3-(6,7-dihydrothieno[3,2-c]pyridin-5(4H)-yl)-2-hydroxypropyl)pyrimidine-4-carboxamide]	101 to 1000	< 100
CC(=O)N1CC(Nc2cc(C(=O)NC[C@H](O)CN3CCc4oc(C)nc4C3)ncn2)C1 [Compound 4-2, (S)-6-((1-acetylazetidin-3-yl)amino)-N-(2-hydroxy-3-(2-methyl-6,7-dihydrooxazolo[4,5-c]pyridin-5(4H)-yl)propyl)pyrimidine-4-carboxamide]	> 5000	> 1000
CC(=O)N1CC(Nc2cc(C(=O)NC[C@H](O)CN3CCc4sccc4C3)ncn2)C1 [Compound 1-2, (S)-6-((1-acetylazetidin-3-yl)amino)-N-(3-(6,7-dihydrothieno[3,2-c]pyridin-5(4H)-yl)-2-hydroxypropyl)pyrimidine-4-carboxamide]	101 to 1000	< 100
CC(=O)N1CCC(Nc2cc(C(=O)NC[C@H](O)CN3CCc4scnc4C3)ccn2)CC1 [Compound 1-30]	> 5000	101 to 1000
O=C(NC[C@H](O)CN1CCc2sccc2C1)c1cc(NC2COC2)ncn1 [Compound 1-1, (S)—N-(3-(6,7-dihydrothieno[3,2-c]pyridin-5(4H)-yl)-2-hydroxypropyl)-6-(oxetan-3-ylamino)pyrimidine-4-carboxamide]	1000 to 10000	< 100
Cn1cc2c(n1)CCN(C[C@@H](O)CNC(=O)c1cc(NC3COC3)ncn1)C2 [Compound 3-27]	> 5000	> 1000
